# From EP4563149A1, “LURBINECTEDIN, ECUBECTEDIN AND A RELATED COMPOUND FOR USE IN THE TREATMENT OF SKIN CANCERS” (Pharma Mar, S.A., priority 2023, dated 2025)
# Read-outs that look alike come from different tables or passages of the source.
# How the values were obtained:
# [1] = system: 501mel, 501mel^VemuR or SKMEL28 melanoma cells; conditions: weekly IV 1.2mg/kg; for antitumor activity (tumor volumes) versus placebo-treated group: N=8/group; for overall survival: three CDX models
# Experimental: (§1) To investigate the effects of the aforementioned tested drugs in living organisms, it was decided to examine the impact of PM14 and Compound IA on melanoma cell-derived xenograft (CDXs) mouse models. Human 501mel, 501mel^VemuR or SKMEL28 melanoma cells were subcutaneously implanted into the right flank of NSG mice.
# Tumor volumes were monitored following weekly IV treatments of PM14 or Comp IA at a concentration of 1.2mg/kg. Treatments commenced (Day 0) when the tumors reached 150 mm^3 in female NSG mice aged 4 to 6 weeks (N=8/group).
# [2] = system: melanoma cells 501mel; assay: Cell cycle analysis by flow cytometry (PI); format: cell-based, human; conditions: IC50 concentrations
# Experimental: For cell cycle analysis, 2×10^6 cells were seeded in 6 well plates. […] After 2 washes with cold PBS, cells were incubated with RNAse A and PI for 1h in the dark, before being analyzed on a BD LSRFortessaTM Flow Cytometer. Data were analysed with FlowJo software.
# [3] = system: MM074 melanospheres; assay: Melanosphere viability (CellTiterGlo); format: cell-based, human; conditions: 72h, doses equivalent to 5×IC50
# Experimental: MM074 proliferative/differentiated cell line were seeded (5×10^4 cells) in ultra-low attachment hydrogel-layered 96 well plates in KO DMEM medium supplemented with 20% KSR, AANE, 2 mM Glutamax, Penicillin/Streptomycin and 100 uM Beta-mercaptoethanol. To allow for melanosphere formation, cells were left to grow for 4 days before drug treatment.
# To analyze melanosphere viability after drug treatment, cells were treated with CellTiterGlo reagent (Promega) according to the manufacturer's instructions. Luminescence signals were measured with a Centro XS LB 960 microplate reader (Berthold).
# [4] = system: melanoma cells; assay: Apoptosis by flow cytometry (AnnexinV-APC); format: cell-based, human; conditions: IC50 concentrations, Annexin V-APC
# Experimental: After 48h of incubation, cells were rinsed and incubated with AnnexinV-APC (BD Biosciences). Cell proliferation and apoptosis were detected on a BD LSRFortessaTM Flow Cytometer. Data were analyzed with FlowJo software. To define slow proliferating or apoptotic cells: it was considered that slow proliferating cells represented the 30% of cells with the highest concentration of CellTrace Violet signal in the DMSO control. […] For apoptotic cells, it was considered the 20% of cells with the highest signal of AnnexinV-APC in the DMSO control.
# [5] = system: MM074; assay: Cell viability assay (PrestoBlue), 72h; conditions: Homo sapiens
# Experimental: (§7) Cells were grown at 37°C in 5% CO2 (10% for Hermes 3A) and were regularly checked for mycoplasma contamination. […] Melanoma cell lines 501mel and SKmel28 were grown in RPMI w/o HEPES (Gibco, Invitrogen) supplemented with 10% FCS and gentamycin. Vemurafenib-resistant cells (501melVemuR and MM074VemuR) were additionally supplemented with 1.5 µM of vemurafenib. Melanoma IGR cell lines (IGR37 and IGR39) were grown in RPMI w/o HEPES (Gibco, Invitrogen) supplemented with 15% FCS and gentamycin.
# (§8) To determine the IC50 (half maximal inhibitory concentration) of these cells to various inhibitors, cell viability assays were performed.
# (§9) After 72h of treatment with different concentrations of the compounds, cells were treated with PrestoBlue reagent according to the manufacturer's instructions. The absorbance per well was measured with a Cellinsight CX5 microplate reader. Data were analyzed using Prism9 statistical software.
# [6] = system: WM-266-4 melanoma xenografts; conditions: 1.2 mg/kg intravenous
# Experimental: (§2) Female athymic nu/nu mice (Harlan Laboratories Models, S.L. Barcelona, Spain or Envigo, Spain) were utilized for all experiments. Animal were housed in individually ventilated cages Sealsafe® Plus, Techmplast S.P.A.), up to ten per cage on a 12-hour light-dark cycle at 21-23 °C and 40-60 % humidity. Mice were allowed free access to irradiated standard rodent diet (Tecklad 2914C) and sterilized water. Animals were acclimated for at least 5 days prior to tumor implantation with a tumor cell suspension.
# (§3) The cell line used are: • 501mel • IGR-37 • SK-Mel-28 • WM-266-4 • LOX-IMVI • 501mel^Vemur
# (§4) In xenograft studies with cell lines: • Tumour volume was calculated using the equation […], where a: length (longest diameter) and b: width (shortest diameter) were measured in mm by using digital caliper (Fowler Sylvac, S235PAT). Tumour dimensions and body weights were recorded 2-3 times per week starting from the first day of treatment. • When tumors reached ca. 150-250 mm^3, tumour bearing animals (N = 8-10/group) were randomly allocated into the treatment groups, based on body weight and tumour measurements by using NewLab Oncology Software (version 2.25.06.00). • Comparison between median tumour volume of treated and placebo groups was used for evaluation of the antitumoural efficacy. • Animals were euthanized when their tumours reached ca. 1,500 mm^3 and/or severe necrosis was seen.
# (§5) Treatments producing >20 % lethality and/or 20% net body weight loss were considered toxic.
# (§6) In these experiments, PM14 and Compound IA, as well as placebo, were intravenously administered once per week for 3 consecutive weeks, on days 0, 7 and 14, whenever it was possible.
# Table 7. Tumour volume evaluation in WM-266-4 melanoma xenografts with PM14 and Compound IA and placebo.
# [7] = system: IGR37; assay: Cell viability assay (PrestoBlue), 72h, last line of Table 2; conditions: Homo sapiens, IGR-37, 72 h
# Experimental: (§10) Cells were grown at 37°C in 5% CO2 (10% for Hermes 3A) and were regularly checked for mycoplasma contamination. […] Melanoma IGR cell lines (IGR37 and IGR39) were grown in RPMI w/o HEPES (Gibco, Invitrogen) supplemented with 15% FCS and gentamycin.
# as §8, §9
# [8] = system: MM047; assay: Cell viability assay (PrestoBlue), 72h; conditions: Homo sapiens
# Experimental: as §10, §8, §9
# [9] = system: MM029; assay: Cell viability assay (PrestoBlue), 72h; conditions: Homo sapiens
# Experimental: as §10, §8, §9
# [10] = system: LOX-IMVI melanoma xenografts; conditions: 1.2 mg/kg intravenous
# Experimental: as §2, §3, §4, §5, §6
# Tumour volume evaluation in LOX-IMVI melanoma xenografts with PM14 and Compound IA and placebo.
# [11] = system: 501mel^VemuR; assay: Cell viability assay (PrestoBlue), 72h; conditions: Homo sapiens
# Experimental: Cells were grown at 37°C in 5% CO2 (10% for Hermes 3A) and were regularly checked for mycoplasma contamination. MM patient-derived short-term melanoma cultures (MM011, MM074, MM117, MM029, MM047, MM099) were grown in HAM-F10 (Gibco, Invitrogen) supplemented with 10% Fetal Calf Serum (FCS), 25 mM HEPES, 5.2 mM GLUTAMAX and penicillin-streptomycin. Melanoma cell lines 501mel and SKmel28 were grown in RPMI w/o HEPES (Gibco, Invitrogen) supplemented with 10% FCS and gentamycin. Vemurafenib-resistant cells (501melVemuR and MM074VemuR) were additionally supplemented with 1.5 µM of vemurafenib. Melanoma IGR cell lines (IGR37 and IGR39) were grown in RPMI w/o HEPES (Gibco, Invitrogen) supplemented with 15% FCS and gentamycin.
# as §8, §9
# [12] = system: IGR37; assay: Cell viability assay (PrestoBlue), 72h; conditions: Homo sapiens, IGR-37, 72 h
# Experimental: as §7, §8, §9
# [13] = system: 501mel, 501mel^VemuR and SKMEL28-derived xenografts; conditions: 24h after single IV dose of 1.2 mg/kg
# From the text: as §1
smiles,measurement,setting,value
COc1c(C)cc2c(c1O)[C@@H]1[C@@H]3[C@@H]4SC[C@]5(N[C@H](CO)Cc6c5oc5ccccc65)C(=O)OC[C@@H](c5c6c(c(C)c(OC(C)=O)c54)OCO6)N3[C@@H](O)[C@H](C2)N1C [Compound IA],antitumor activity (tumor volumes) versus placebo-treated group,[1],statistically significant difference
same,overall survival,[1],significant increase
same,cell cycle progression,[2],notable blockade
same,cell viability in 3D culture,[3],significant cytotoxic effects
same,apoptosis,[4],induction of apoptosis
same,IC50,[5],3.81 nM
same,Median Tumour Volume,"[6]; days 0, 7 and 14, day 0",169.5 mm^3
same,Median Tumour Volume,"[6]; days 0, 7 and 14, day 3",109.8 mm^3
same,Median Tumour Volume,"[6]; days 0, 7 and 14, day 5",100 mm^3
same,Median Tumour Volume,"[6]; days 0, 7 and 14, day 7",104.4 mm^3
same,Median Tumour Volume,"[6]; days 0, 7 and 14, day 10",97.8 mm^3
same,Median Tumour Volume,"[6]; days 0, 7 and 14, day 12",89.2 mm^3
same,Median Tumour Volume,"[6]; days 0, 7 and 14, day 14",94.9 mm^3
same,Median Tumour Volume,"[6]; days 0, 7 and 14, day 17",68.8 mm^3
same,Median Tumour Volume,"[6]; days 0, 7 and 14, day 19",75.7 mm^3
same,Median Tumour Volume,"[6]; days 0, 7 and 14, day 21",95.2 mm^3
same,Median Tumour Volume,"[6]; days 0, 7 and 14, day 24",75.7 mm^3
same,Median Tumour Volume,"[6]; days 0, 7 and 14, day 26",96.7 mm^3
same,Median Tumour Volume,"[6]; days 0, 7 and 14, day 28",99.4 mm^3
same,Median Tumour Volume,"[6]; days 0, 7 and 14, day 34",134.3 mm^3
same,Median Tumour Volume,"[6]; days 0, 7 and 14, day 41",275.2 mm^3
same,Median Tumour Volume,"[6]; days 0, 7 and 14, day 45",312.1 mm^3
same,Median Tumour Volume,"[6]; days 0, 7 and 14, day 48",461.7 mm^3
same,Median Tumour Volume,"[6]; days 0, 7 and 14, day 55",749.7 mm^3
same,Median Tumour Volume,"[6]; days 0, 7 and 14, day 62",985.3 mm^3
same,Median Tumour Volume,"[6]; days 0, 7 and 14, day 69","1,145.3 mm^3"
same,IC50,[7],0.84 nM
same,IC50,[8],1.38 nM
same,IC50,[9],4.73 nM
same,Median Tumour Volume,"[10]; days 0, 7 and 14, day 0",186.2 mm^3
same,Median Tumour Volume,"[10]; days 0, 7 and 14, day 2",196.3 mm^3
same,Median Tumour Volume,"[10]; days 0, 7 and 14, day 4",138.7 mm^3
same,Median Tumour Volume,"[10]; days 0, 7 and 14, day 7",106.8 mm^3
same,Median Tumour Volume,"[10]; days 0, 7 and 14, day 9",87.8 mm^3
same,Median Tumour Volume,"[10]; days 0, 7 and 14, day 11",56 mm^3
same,Median Tumour Volume,"[10]; days 0, 7 and 14, day 14",53.5 mm^3
same,Median Tumour Volume,"[10]; days 0, 7 and 14, day 16",54.7 mm^3
same,Median Tumour Volume,"[10]; days 0, 7 and 14, day 18",51.4 mm^3
same,Median Tumour Volume,"[10]; days 0, 7 and 14, day 21",71.2 mm^3
same,Median Tumour Volume,"[10]; days 0, 7 and 14, day 23",99.9 mm^3
same,Median Tumour Volume,"[10]; days 0, 7 and 14, day 25",132 mm^3
same,Median Tumour Volume,"[10]; days 0, 7 and 14, day 28",597.7 mm^3
same,Median Tumour Volume,"[10]; days 0, 7 and 14, day 30","1,158.4 mm^3"
same,Median Tumour Volume,"[10]; days 0, 7 and 14, day 32","1,098.3 mm^3"
same,Median Tumour Volume,"[10]; days 0, 7 and 14, day 35",968.8 mm^3
same,Median Tumour Volume,"[10]; days 0, 7 and 14, day 37","1,375.6 mm^3"
same,IC50,[11],2.13 nM
same,IC50,[12],1.48 nM
same,fraction of apoptotic cells (cleaved caspase-3),[13],significant increase
"COc1c(C)cc2c(c1O)[C@@H]1[C@@H]3[C@@H]4SC[C@]5(N[C@H](CO)Cc6c5[nH]c5ccccc65)C(=O)OC[C@@H](c5c6c(c(C)c(OC(C)=O)c54)OCO6)N3[C@@H](O)[C@H](C2)N1C [PM14, ecubectedin]",antitumor activity (tumor volumes) versus placebo-treated group,[1],statistically significant difference
same,overall survival,[1],significant increase
same,cell cycle progression,[2],notable blockade
same,cell viability in 3D culture,[3],significant cytotoxic effects
same,apoptosis,[4],induction of apoptosis
same,IC50,[5],1.15 nM
same,Median Tumour Volume,"[6]; days 0, 7 and 14, day 0",169.5 mm^3
same,Median Tumour Volume,"[6]; days 0, 7 and 14, day 3",115.1 mm^3
same,Median Tumour Volume,"[6]; days 0, 7 and 14, day 5",118.2 mm^3
same,Median Tumour Volume,"[6]; days 0, 7 and 14, day 7",136.6 mm^3
same,Median Tumour Volume,"[6]; days 0, 7 and 14, day 10",133.1 mm^3
same,Median Tumour Volume,"[6]; days 0, 7 and 14, day 12",109.8 mm^3
same,Median Tumour Volume,"[6]; days 0, 7 and 14, day 14",138.4 mm^3
same,Median Tumour Volume,"[6]; days 0, 7 and 14, day 17",129.6 mm^3
same,Median Tumour Volume,"[6]; days 0, 7 and 14, day 19",119.2 mm^3
same,Median Tumour Volume,"[6]; days 0, 7 and 14, day 21",150.4 mm^3
same,Median Tumour Volume,"[6]; days 0, 7 and 14, day 24",137.2 mm^3
same,Median Tumour Volume,"[6]; days 0, 7 and 14, day 26",146.9 mm^3
same,Median Tumour Volume,"[6]; days 0, 7 and 14, day 28",197.6 mm^3
same,Median Tumour Volume,"[6]; days 0, 7 and 14, day 34",388.1 mm^3
same,Median Tumour Volume,"[6]; days 0, 7 and 14, day 41",727.7 mm^3
same,Median Tumour Volume,"[6]; days 0, 7 and 14, day 45","1,111.6 mm^3"
same,Median Tumour Volume,"[6]; days 0, 7 and 14, day 48","1,503.6 mm^3"
same,IC50,[7],0.78 nM
same,IC50,[8],0.96 nM
same,IC50,[9],1.4 nM
same,Median Tumour Volume,"[10]; days 0, 7 and 14, day 0",185 mm^3
same,Median Tumour Volume,"[10]; days 0, 7 and 14, day 2",173.7 mm^3
same,Median Tumour Volume,"[10]; days 0, 7 and 14, day 4",103.2 mm^3
same,Median Tumour Volume,"[10]; days 0, 7 and 14, day 7",73.8 mm^3
same,Median Tumour Volume,"[10]; days 0, 7 and 14, day 9",68.5 mm^3
same,Median Tumour Volume,"[10]; days 0, 7 and 14, day 11",51.2 mm^3
same,Median Tumour Volume,"[10]; days 0, 7 and 14, day 14",37.5 mm^3
same,Median Tumour Volume,"[10]; days 0, 7 and 14, day 16",40.8 mm^3
same,Median Tumour Volume,"[10]; days 0, 7 and 14, day 18",35.3 mm^3
same,Median Tumour Volume,"[10]; days 0, 7 and 14, day 21",43.5 mm^3
same,Median Tumour Volume,"[10]; days 0, 7 and 14, day 23",55.5 mm^3
same,Median Tumour Volume,"[10]; days 0, 7 and 14, day 25",68.5 mm^3
same,Median Tumour Volume,"[10]; days 0, 7 and 14, day 28",233.4 mm^3
same,Median Tumour Volume,"[10]; days 0, 7 and 14, day 30",547.3 mm^3
same,Median Tumour Volume,"[10]; days 0, 7 and 14, day 32","1,044 mm^3"
same,Median Tumour Volume,"[10]; days 0, 7 and 14, day 35","1,565 mm^3"
same,Median Tumour Volume,"[10]; days 0, 7 and 14, day 37","1,610.4 mm^3"
same,IC50,[11],1.04 nM
same,IC50,[12],1.05 nM
same,fraction of apoptotic cells (cleaved caspase-3),[13],significant increase
